Test results from article PMC4478171, “Synthesis, characterization, and preclinical validation of a PET radiopharmaceutical for interrogating Aβ (β-amyloid) plaques in Alzheimer’s disease” (EJNMMI Research, 2015).
Entries after “also recorded” stand apart in the source; their conditions may differ. Read-outs that look alike come from different tables or passages of the source.

Legend:
[1] = normal mice, cited from earlier work
[2] = comparison values, no reference given; cited from earlier work
[3] = target: AD homogenates (Homo sapiens, UniProt P05067); settings: cited from earlier work
AD homogenates, sequence (P05067 672-711 limits assumed): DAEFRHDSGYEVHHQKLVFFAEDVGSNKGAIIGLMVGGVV

[4] = target: cortical Aβ plaques in AD frontal cortex sections (Homo sapiens, UniProt P05067); experiment: Autoradiography on AD frontal cortex sections with IHC correlation; assay type: binding; settings: 7A […] with 18F-7B 10 nM
cortical Aβ plaques in AD frontal cortex sections, sequence (P05067 672-711 limits assumed): as above
Protocol: Frozen AD frontal cortex sections (12 μm) were obtained using a TBS Minotome PLUS Cryostat. The tissue sections were thaw-mounted onto Superfrost Plus (Fisherbrand 12-550-15 (Fisherbrand, Leicestershire, UK)) microscope slides, allowed to air dry for 10 to 15 min, and stored at −80°C. For autoradiography, brain sections were brought to room temperature for 5 min and then pre-incubated in assay buffer (30 mM Tris-HCl, pH 7.4 + 0.1% BSA) for 10 min at RT. Sections were incubated with ^18F-7B (300 μL/slide; 10 nM) in the assay buffer for 60 min at room temperature. For determining nonspecific binding, adjacent sections were incubated in the additional presence of 2.5 μM cold ligand 7A. Sections were then washed at RT for 1 min in 30 mM Tris-HCl pH 7.4, 2 min in 70% ethanol/30 mM Tris-HCl, 1 min in 30% ethanol/30 mM Tris-HCl, and 1 min in 30 mM Tris-HCl (washing protocol using literature precedents. Sections were then dried and exposed to phosphor-imaging screen (BAS-MS 2025) for 30 min. Autoradiography images were obtained on a Fuji Bio-Imaging System FLA-7000 (Tokyo, Japan) and analyzed using MultiGauge software (Fuji, Tokyo, Japan). Following exposure to a phosphor-imaging screen, the sections were then blocked for 60 min at room temperature with 3% milk-0.25% Tween 20-PBS buffer. […]

[5] = test system: Aβ plaques in autopsy-confirmed AD human tissues; parameters: method as in PMID 25003699; settings: cited from earlier work
[6] = test system: Aβ plaques; parameters: method as in PMID 25003699; settings: transgenic mice; cited from earlier work

Compound: CNc1ccc(/C=C/c2ccc(OCCOCCOCCF)nc2)cc1 [Florbetapir, (E)-4-(2-(6-(2-(2-(2-^18F-fluoroethoxy)ethoxy)-ethoxy)pyridin-3-yl)vinyl)-N-methyl benzenamine]
- Brain uptake ([1]; 2 min): 7.33 ± 1.54 %ID/g
- Brain uptake ([1]; 2 h): 1.80 ± 0.07 %ID/g
- brain uptake ratio 2 min/2 h [1]: 4.07
- log P [2]: 2.4

Compound: CNc1ccc(/C=C/c2ccc(OCCOCCOCCF)cc2)cc1 [Florbetaben]
- BP [3]: 152
- Bmax [3]: 2,431 nM
- Kd [3]: 16 nM

Compound: CN(C)c1ccc(/C=C/c2nc3ccc(OCCF)cc3s2)cn1 [7A, (E)-5-(2-(6-(2-fluoroethoxy)benzo[d]thiazol-2-yl)vinyl)-N,N-dimethylpyridin-2-amine]
- inhibition of 18F-7B binding in autoradiography [4]: binding was inhibited
- plaque types labeled [5]: labels diffuse plaques in autopsy-confirmed AD human tissues; also recorded: binding to both diffuse and fibrillary plaques
- BBB penetration and plaque labeling by multiphoton imaging [6]: could traverse the BBB to label parenchymal plaques in the brain of transgenic mice
